Laboratory results reported in patent US20230284621A1, “HERBICIDAL COMPOSITIONS” (PBI-Gordon Corporation, priority 2022, published 2023).

Columns and labels:
[1] = Chemical stability, accelerated 40° C. storage; format: physicochemical; settings: for 30 Days @ 40° C. (% Change from Initial): 30 days at 40° C.; for 42 Days @ 40° C. (% Change from Initial): 42 days at 40° C.
Method: (§1) Formulations were prepared as described in Example I. Physically stable formulations (no settling or physical issues observed) were tested for chemical stability over various time spans and temperature conditions.
Formulations were prepared as described in Example III. Physically stable formulations (no settling or physical issues observed) were tested for chemical stability over various time spans and temperature conditions.

[2] = Chemical stability, ambient storage; format: physicochemical; settings: for 17 Months (% Change from Initial): active ingredient in Professional Formulation 1, 17 Months (title: 14 Months); for 16 Months (% Change from Initial): active ingredient in Professional Formulation 2
Method: as §1

[3] = active ingredient in Consumer Formulation 3
[4] = active ingredient in Professional Formulation 1
[5] = active ingredient in Professional Formulation 2
[6] = active ingredient in Ready to Use Formulation 3
[7] = active ingredient in Ready-to-Use Formulation 2

SMILES	30 Days @ 40° C. (% Change from Initial) [1, 3]	42 Days @ 40° C. (% Change from Initial) [1, 4]	42 Days @ 40° C. (% Change from Initial) [1, 5]	30 Days @ 40° C. (% Change from Initial) [1, 6]	30 Days @ 40° C. (% Change from Initial) [1, 7]	17 Months (% Change from Initial) [2]	16 Months (% Change from Initial) [2]
O=C(O)COc1ccc(Cl)cc1Cl [2,4-D acid]	−0.21%	+0.66%	+1.38%	−.21%	+0.83%	+2.71%	−2.02%
COc1c(Cl)ccc(Cl)c1C(=O)O [Dicamba acid, 3,6-dichloro-2-methoxybenzoic acid]	0.00%	−4.11%	0.00%	−1.79%	+1.10%	+2.04%	−0.80%
Cc1nn(-c2cc(NS(C)(=O)=O)c(Cl)cc2Cl)c(=O)n1C(F)F [Sulfentrazone, N-[2,4-dichloro-5-[4-(difluoromethyl)-3-methyl-5-oxo-1,2,4-triazol-1-yl]phenyl]methanesulfonamide]	0.00%	+1.30%	+0.29%	−0.33%	−0.67%	+3.60%	+5.71%
Cc1c(C(=O)c2c[nH]n(C)c2=O)ccc(S(C)(=O)=O)c1C1=NOCC1 [Topramazone, 4-[3-(4,5-dihydro-1,2-oxazol-3-yl)-2-methyl-4-methylsulfonylbenzoyl]-2-methyl-1H-pyrazol-3-one]	−1.53%	−3.89%	+1.14%	−0.46%	0.00%	−4.79%	−4.40%
